Data set [1] is described as follows: Protocol 119: body weight, adverse events and toxicity. The format is in vivo.
Data set [2] is described as follows: Protocol 195: body weight, adverse events and toxicity. The format is in vivo.
The nature of data set [3]: Protocol 150: body weight, adverse events and toxicity. In kind it is in vivo. The source says:
(§1) Primary solid xenografts were established in each B6-huCEA or huCEACAM5 mouse on study day 0 through subcutaneous (SC) or intrapancreatic injection of carcinoembryonic antigen (CEA)-expressing tumor cells. […] Indications of pain, distress, or discomfort include, but are not limited to, acute body weight (BW) loss, scruffy fur, diarrhea, hunched posture, pale skin, and reluctance to move. Poor SC tumor status (e.g. ulceration, teeth marks, or open wounds) may also prompt euthanasia; in the orthotopic model, abdominal swelling indicates increasing tumor burden, which may prompt euthanasia.
(§2) SC tumor volumes were estimated through manual calipering 3 times per week, calculated according to the formula: volume 0.5× length×width^2. Additional tumor measurements were made as needed depending on the tumor growth rate. In the orthotopic model, the tumor progress was assessed regularly through bioluminescence imaging (BLI). The BW of the animals was measured at least 3 times per week, with additional measurements as needed depending on the health status. Mice whose BW loss exceeded 20% of their initial BW or whose tumor volume reached 3000 mm^3 (Protocols 119, 136, 150) or 2000 mm^3 (Protocol 195) were euthanized immediately.
No mice were euthanized due to acute post-injection BW loss.
Reactions included sluggish behaviour, somnolence, and death in 1/14 mice. […]

A short description of data set [4]: Protocol 136: body weight, adverse events and toxicity. In kind it is in vivo, B6-huCEA mice.
Description: as §1, §2
No mice were euthanized due to acute post-injection BW loss; 1 tumor-free CEA-PRIT mouse was euthanized on day 117 after a sudden decline in overall status. […]

SMILES strings stand for the structures.

This note sets out measurements from patent US20240173442A1, “COMBINATION THERAPY” (Hoffmann-La Roche Inc., priority 2021, published 2024).

For `NC(=O)CN1CCN(CC(N)=O)CCN(CC(N)=O)CCN(CC(N)=O)CC1.[212Pb+2]` [^212Pb-DOTAM], the body weight change result in data set [1] is recorded as “transient weight loss in irradiated mice”; in data set [2], “did not cause any significant weight loss by itself”; in data set [3] it was “transient weight loss in irradiated mice”; in data set [4], “transient weight loss in irradiated mice”.
